Assay results from article PMC6934184, “Selective DNA-PKcs inhibition extends the therapeutic index of localized radiotherapy and chemotherapy” (The Journal of Clinical Investigation, 2019).

Target: T1, WNK2 (Homo sapiens, UniProt Q9Y3S1)
T1 construct: purchased Thermo Fisher Scientific (Life Technologies) SelectScreen
Assay: SelectScreen LanthaScreen
Format: binding
Settings: read-out: % displacement
In short: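 Percent values come from Thermo SelectScreen profiling of NU5455, combining activity and binding assays. CSF1R was run in Z'LYTE format at Km app ATP, and CAMK1 in Adapta format with ATP listed at 10.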

T1 sequence (Q9Y3S1 whole entry): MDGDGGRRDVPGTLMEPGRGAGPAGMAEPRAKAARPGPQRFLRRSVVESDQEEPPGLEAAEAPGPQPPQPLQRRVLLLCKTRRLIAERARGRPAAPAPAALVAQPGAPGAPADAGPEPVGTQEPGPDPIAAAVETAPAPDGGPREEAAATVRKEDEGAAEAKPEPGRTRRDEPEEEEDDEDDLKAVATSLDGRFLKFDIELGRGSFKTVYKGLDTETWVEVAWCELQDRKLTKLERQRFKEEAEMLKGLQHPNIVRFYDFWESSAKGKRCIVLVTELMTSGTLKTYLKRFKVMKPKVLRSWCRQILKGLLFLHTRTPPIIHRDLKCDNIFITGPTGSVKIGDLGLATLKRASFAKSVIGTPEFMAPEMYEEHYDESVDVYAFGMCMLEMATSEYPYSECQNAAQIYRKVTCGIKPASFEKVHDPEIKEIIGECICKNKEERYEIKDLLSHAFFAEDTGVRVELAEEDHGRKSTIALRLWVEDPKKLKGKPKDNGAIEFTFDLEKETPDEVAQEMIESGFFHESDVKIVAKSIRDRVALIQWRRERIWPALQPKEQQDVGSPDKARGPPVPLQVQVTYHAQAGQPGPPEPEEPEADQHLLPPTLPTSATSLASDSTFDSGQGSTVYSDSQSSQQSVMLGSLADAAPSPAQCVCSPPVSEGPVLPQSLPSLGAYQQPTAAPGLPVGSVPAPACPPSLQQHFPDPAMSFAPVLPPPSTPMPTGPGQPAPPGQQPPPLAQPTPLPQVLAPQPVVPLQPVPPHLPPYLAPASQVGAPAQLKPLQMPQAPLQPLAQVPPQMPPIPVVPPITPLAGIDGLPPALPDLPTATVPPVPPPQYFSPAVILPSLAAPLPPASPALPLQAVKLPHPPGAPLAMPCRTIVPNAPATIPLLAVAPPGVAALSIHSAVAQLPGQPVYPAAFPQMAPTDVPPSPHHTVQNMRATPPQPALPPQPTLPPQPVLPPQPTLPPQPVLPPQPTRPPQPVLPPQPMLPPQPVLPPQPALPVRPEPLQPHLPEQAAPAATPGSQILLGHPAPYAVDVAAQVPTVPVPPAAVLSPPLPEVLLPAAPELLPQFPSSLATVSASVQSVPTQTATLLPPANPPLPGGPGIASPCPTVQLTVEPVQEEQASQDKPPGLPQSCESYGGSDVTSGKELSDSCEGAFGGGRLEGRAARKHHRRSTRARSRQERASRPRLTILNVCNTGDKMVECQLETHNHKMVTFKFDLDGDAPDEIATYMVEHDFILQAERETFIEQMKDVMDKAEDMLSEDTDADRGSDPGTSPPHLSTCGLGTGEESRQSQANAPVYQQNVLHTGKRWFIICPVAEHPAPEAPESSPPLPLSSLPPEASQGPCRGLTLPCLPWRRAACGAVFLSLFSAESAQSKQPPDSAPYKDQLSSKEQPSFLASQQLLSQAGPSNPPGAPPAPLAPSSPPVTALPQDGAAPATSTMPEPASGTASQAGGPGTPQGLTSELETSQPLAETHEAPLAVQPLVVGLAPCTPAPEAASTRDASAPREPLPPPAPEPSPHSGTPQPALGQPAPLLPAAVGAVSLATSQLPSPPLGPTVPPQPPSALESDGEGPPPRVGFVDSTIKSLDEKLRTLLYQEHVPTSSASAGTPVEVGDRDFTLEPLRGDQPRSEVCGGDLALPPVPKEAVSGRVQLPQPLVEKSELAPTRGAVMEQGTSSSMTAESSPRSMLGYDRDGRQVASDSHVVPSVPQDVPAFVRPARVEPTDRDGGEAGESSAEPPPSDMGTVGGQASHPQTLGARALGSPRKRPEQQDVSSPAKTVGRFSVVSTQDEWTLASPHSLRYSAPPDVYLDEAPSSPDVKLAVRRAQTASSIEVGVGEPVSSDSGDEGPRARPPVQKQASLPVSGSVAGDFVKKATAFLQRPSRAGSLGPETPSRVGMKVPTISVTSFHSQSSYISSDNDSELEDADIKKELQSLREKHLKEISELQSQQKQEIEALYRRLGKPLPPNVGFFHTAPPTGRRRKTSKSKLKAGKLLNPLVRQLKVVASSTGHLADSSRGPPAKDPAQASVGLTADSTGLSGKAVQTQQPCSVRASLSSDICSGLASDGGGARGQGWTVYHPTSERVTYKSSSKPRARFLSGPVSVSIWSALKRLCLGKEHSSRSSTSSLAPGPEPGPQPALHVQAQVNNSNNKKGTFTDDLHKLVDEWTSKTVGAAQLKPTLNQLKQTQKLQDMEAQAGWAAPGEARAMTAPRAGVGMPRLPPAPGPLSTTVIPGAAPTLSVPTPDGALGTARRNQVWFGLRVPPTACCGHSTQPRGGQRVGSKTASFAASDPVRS

## CN(C(=O)CN1CCOCC1)c1ccc2sc3c(-c4cccc5c(=O)cc(N6CC7CCC(C6)O7)oc45)cccc3c2c1 [NU5455]
  inhibition at 1 µM: -2.5%
